The values that follow are results of earlier work, collected in patent US11154520B2, “Combination therapy for metastatic cancer” (General Oncology, Inc., priority 2015, dated 2021).

The conditions of the series: decomposes intravascularly within seconds to 2,3-diketogulonic acid.

Take `O=C1O[C@H]([C@@H](O)CO)C(=O)C1=O` [DHA, (5R)-5-[(1S)-1,2-dihydroxyethyl]oxolane-2,3,4-trione]: the stability in blood entry is recorded as “unstable”.
